This note sets out measurements from ChEMBL document CHEMBL1128530, “Alpha- and beta-adrenoceptors: from the gene to the clinic. 1. Molecular biology and adrenoceptor subclassification” (J Med Chem, 1995).

In assay [1] the target is T1, Alpha-2A adrenergic receptor (Homo sapiens, UniProt P08913).
T1 sequence (P08913 whole entry): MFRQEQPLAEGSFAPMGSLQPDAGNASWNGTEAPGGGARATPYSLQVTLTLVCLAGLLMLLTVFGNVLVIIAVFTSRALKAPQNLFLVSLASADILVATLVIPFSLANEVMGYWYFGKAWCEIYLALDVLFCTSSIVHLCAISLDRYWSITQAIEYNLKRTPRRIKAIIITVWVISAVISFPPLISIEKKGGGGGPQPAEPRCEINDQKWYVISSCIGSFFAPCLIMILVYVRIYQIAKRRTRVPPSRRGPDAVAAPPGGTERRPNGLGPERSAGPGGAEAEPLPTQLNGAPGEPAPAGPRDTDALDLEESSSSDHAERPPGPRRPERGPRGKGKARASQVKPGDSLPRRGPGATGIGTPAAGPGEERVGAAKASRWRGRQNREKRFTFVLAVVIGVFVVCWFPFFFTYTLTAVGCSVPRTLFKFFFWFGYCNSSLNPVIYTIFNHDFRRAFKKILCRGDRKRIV
Nature of the assay: Binding affinity against Alpha-2A adrenergic receptor, from human clones.

Assay [2] has as its target T2, Alpha-1A adrenergic receptor (Bos taurus, UniProt P18130).
T2 sequence (P18130 whole entry): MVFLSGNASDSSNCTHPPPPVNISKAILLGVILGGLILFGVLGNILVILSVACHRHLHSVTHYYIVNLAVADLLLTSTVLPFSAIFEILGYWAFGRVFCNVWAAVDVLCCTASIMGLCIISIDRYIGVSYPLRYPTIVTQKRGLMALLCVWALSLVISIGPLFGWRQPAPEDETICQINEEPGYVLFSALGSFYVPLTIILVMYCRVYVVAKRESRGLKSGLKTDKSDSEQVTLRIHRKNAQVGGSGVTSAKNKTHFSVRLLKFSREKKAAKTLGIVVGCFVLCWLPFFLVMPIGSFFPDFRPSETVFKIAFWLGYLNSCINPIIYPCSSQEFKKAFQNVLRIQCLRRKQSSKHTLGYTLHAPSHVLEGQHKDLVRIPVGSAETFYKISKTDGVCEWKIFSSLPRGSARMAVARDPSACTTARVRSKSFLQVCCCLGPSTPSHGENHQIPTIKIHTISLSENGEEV
As to the kind of experiment: Binding affinity against Alpha-1A adrenergic receptor from bovine clone.

For assay [3], the target named is T3, Alpha-2A adrenergic receptor (Rattus norvegicus, UniProt P22909).
T3 sequence (P22909 whole entry): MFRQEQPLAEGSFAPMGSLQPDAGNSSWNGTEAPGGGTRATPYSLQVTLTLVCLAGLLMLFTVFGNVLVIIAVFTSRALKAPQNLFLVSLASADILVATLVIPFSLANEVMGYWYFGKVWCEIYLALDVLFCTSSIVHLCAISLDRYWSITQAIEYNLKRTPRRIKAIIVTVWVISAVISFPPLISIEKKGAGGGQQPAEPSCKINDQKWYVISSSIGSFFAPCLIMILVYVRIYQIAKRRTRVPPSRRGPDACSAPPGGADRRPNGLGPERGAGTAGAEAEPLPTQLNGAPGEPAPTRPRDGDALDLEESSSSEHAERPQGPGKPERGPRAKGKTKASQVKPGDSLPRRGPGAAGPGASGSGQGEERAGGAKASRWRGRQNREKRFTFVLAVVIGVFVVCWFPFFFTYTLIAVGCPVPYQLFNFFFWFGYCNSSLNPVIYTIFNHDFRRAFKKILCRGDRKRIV
As to the kind of experiment: The compound was tested for binding affinity against alpha-2d-adrenoceptor, from rat clones.

Assay [4] has as its target T4, Alpha-1A adrenergic receptor (Rattus norvegicus, UniProt P43140).
T4 sequence (P43140 whole entry): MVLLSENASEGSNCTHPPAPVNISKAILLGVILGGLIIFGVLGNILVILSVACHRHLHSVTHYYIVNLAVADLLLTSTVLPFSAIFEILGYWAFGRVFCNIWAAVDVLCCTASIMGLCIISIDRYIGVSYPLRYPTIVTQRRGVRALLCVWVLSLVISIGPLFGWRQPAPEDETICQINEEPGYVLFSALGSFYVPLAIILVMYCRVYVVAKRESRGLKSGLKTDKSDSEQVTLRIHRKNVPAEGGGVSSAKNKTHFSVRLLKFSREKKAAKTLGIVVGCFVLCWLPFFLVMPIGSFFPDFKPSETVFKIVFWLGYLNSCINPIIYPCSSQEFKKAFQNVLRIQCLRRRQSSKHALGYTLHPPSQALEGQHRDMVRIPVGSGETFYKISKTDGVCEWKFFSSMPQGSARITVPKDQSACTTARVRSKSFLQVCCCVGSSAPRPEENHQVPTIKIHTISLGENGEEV
Nature of the assay: Overall binding displacement in tissues containing only the Alpha-1A adrenergic receptor from rat submaxillary gland.

Assay [5] deals with T5, Alpha-1A adrenergic receptor (Homo sapiens, UniProt P35348).
T5 sequence (P35348 whole entry): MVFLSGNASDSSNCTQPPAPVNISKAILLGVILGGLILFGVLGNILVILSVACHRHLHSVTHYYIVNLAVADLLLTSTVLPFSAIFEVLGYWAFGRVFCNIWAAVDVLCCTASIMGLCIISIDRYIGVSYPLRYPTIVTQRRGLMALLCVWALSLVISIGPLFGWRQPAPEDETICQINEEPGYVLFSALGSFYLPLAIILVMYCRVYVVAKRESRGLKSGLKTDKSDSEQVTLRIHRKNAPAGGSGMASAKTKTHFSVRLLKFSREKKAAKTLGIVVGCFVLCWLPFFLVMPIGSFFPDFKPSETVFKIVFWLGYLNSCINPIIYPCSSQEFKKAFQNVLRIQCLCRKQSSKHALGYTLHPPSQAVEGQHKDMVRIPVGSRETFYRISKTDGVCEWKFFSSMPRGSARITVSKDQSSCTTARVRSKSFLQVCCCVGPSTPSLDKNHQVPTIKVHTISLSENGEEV
Nature of the assay: The compound was tested for binding affinity against Alpha-1A adrenergic receptor from human clones.

For assay [6], the target named is T2, Alpha-1A adrenergic receptor. Nature of the assay: The compound was tested for binding affinity against Alpha-1A adrenergic receptor from bovine clones.
The target of assay [7] is T6, Alpha-1B adrenergic receptor (Homo sapiens, UniProt P35368).
T6 sequence (P35368 whole entry): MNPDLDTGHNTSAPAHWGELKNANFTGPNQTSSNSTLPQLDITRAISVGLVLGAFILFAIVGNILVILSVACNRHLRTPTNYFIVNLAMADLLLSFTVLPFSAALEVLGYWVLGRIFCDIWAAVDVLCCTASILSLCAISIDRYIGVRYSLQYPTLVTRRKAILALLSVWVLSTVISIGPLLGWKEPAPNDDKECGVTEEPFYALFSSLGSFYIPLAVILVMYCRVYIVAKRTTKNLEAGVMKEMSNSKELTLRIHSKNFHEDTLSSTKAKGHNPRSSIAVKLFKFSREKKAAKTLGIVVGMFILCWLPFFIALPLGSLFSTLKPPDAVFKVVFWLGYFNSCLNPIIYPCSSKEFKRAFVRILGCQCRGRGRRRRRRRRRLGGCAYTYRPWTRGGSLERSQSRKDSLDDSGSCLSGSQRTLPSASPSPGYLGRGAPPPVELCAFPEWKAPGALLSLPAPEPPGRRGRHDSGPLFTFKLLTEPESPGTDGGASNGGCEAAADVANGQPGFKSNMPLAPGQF
As to the kind of experiment: The compound was tested for binding affinity against Alpha-1B adrenergic receptor, from human clones.

pKi: −log10 of the molar value.

As for `COc1cccc(OC)c1OCCNCC1COc2ccccc2O1` (stereo unspecified), the negative logarithm of the Ki (pKi) in assay [1] was 8.46; in assay [2], 9.46; in assay [3] it was 7.34; in assay [4], 10.10.

Regarding `COc1ccccc1N1CCN(CCCNc2c(C)c(=O)n(C)c(=O)n2C)CC1`, the pKi in assay [5] was 8.64; in assay [6], 8.36; in assay [7] it was 7.04; in assay [4], 9.15.

Consider `O=C(NC1CCN(CCc2c[nH]c3ccccc23)CC1)c1ccccc1` [INDORAMIN], for which the negative logarithm of the Ki (pKi) in assay [5] was 8.43; in assay [6] it was 7.92; in assay [7], 7.54.
